Common to all, as to type: cell-based
Test [1] addresses T1, AKT1 E17K (Homo sapiens, UniProt P31749, E17K).
T1 construct: expressed in transfected cells; host or cells: HEK293
Briefly: Live cell AKT1 E17K target engagement by NanoBRET competitive probe displacement. The note with it: HEK293 cells transfected with kinase-NanoLuciferase fusion, 2 h at 37° C. Put shortly:
(§1)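 IC50 fitted (Hill, log inhibitor vs response) to BRET signal, E600/E460 ratio, measured with extracellular NanoLuc inhibitor present. Intact transfected HEK293 cells bearing NanoLuc-tagged kinase were co-incubated 2 h, 37 °C, with compound dilution series and ~EC50 ATP-competitive fluorescent tracer.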
(BRET reads energy transfer from a luciferase to a nearby fluorophore.)

Test [2] addresses T2, AKT1 WT (Homo sapiens, UniProt P31749).
T2 construct: expressed in transfected cells; host or cells: HEK293
Briefly: Live cell AKT1 WT target engagement by NanoBRET competitive probe displacement. The note with it: HEK293 cells transfected with kinase-NanoLuciferase fusion, 2 h at 37° C. In outline: as §1

Test [3] relates to LAPC4 prostate cancer cells. Briefly: Antiproliferative effects in LAPC4 cells (CellTiter Glo). The note with it: LAPC4 cells (AKT1 E17K allele), read-out: LAPC4 proliferation IC50. In outline: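 Growth inhibition was measured by CellTiter Glo ATP luminescence after 72 h compound exposure of 1,000 seeded cells/well. The cells were AKT1 E17K-expressing LAPC4 prostate cancer cells maintained in IMDM plus 12% FBS. IC50 values came from Hill-equation fits.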
For orientation: ATP-based viability assays read luminescence as a measure of living cells.

In test [4] the target is T3, AKT2 (Homo sapiens, UniProt P31751).
T3 construct: expressed in transfected cells; host or cells: HEK293
Briefly: Live cell AKT2 target engagement by NanoBRET competitive probe displacement. The note with it: HEK293 cells transfected with kinase-NanoLuciferase fusion, 2 h at 37° C. Put shortly: as §1

Like-named read-outs stand apart in the source and are kept apart here.

T1 sequence (P31749 whole entry E17K): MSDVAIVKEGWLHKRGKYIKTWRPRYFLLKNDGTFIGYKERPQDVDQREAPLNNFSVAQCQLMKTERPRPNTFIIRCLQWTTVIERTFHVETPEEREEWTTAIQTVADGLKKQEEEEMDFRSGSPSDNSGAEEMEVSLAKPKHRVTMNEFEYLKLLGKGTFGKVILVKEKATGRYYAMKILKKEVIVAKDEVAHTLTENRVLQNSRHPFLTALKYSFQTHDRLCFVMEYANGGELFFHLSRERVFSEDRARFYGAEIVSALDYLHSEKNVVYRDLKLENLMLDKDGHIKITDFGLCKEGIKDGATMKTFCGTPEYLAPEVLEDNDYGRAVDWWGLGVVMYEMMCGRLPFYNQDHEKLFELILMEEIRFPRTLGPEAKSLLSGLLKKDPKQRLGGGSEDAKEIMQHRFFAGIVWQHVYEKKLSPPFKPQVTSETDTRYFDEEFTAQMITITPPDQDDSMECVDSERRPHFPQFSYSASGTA
T3 sequence (P31751 whole entry): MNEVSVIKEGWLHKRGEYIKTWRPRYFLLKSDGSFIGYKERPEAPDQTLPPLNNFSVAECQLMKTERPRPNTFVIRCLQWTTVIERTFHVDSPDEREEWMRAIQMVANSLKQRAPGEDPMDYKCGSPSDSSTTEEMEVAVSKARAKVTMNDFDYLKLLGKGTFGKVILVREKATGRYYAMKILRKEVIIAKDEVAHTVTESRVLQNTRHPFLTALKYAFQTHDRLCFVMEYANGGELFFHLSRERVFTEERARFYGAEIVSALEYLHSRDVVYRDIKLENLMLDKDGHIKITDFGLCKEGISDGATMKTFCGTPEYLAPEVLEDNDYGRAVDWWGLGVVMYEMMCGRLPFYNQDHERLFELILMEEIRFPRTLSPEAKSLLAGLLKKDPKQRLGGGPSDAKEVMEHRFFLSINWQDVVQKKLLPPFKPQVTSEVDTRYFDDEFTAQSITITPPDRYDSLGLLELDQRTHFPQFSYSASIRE
T2 sequence (P31749 whole entry): as the sequence (P31749 whole entry E17K) above, with K17E counted along it

Take `C=CC(=O)NC1CCC(N[C@H]2CCc3cc(-n4c(-c5cccnc5N)nc5ccc(-n6cccn6)nc54)ccc32)CC1` (single isomer, unassigned) [Example 48, N-((1*,4*)-4-(((S)-5-(2-(2-aminopyridin-3-yl)-5-(1H-pyrazol-1-yl)-3H-imidazo[4,5-b]pyridin-3-yl)-2,3-dihydro-1H-inden-1-yl)amino)cyclohexyl)acrylamide]: the IC50 stood at 799 nM in test [1], 111 nM in test [2], 1400 nM in test [3] (72 h) and 1280 nM in test [4].
In the case of `C=CC(=O)N(C)CCCN[C@H]1CCc2cc(-n3c(-c4cccnc4N)nc4ccc(-n5cccn5)nc43)ccc21` [Example 166, (S)-N-(3-((5-(2-(2-aminopyridin-3-yl)-5-(1H-pyrazol-1-yl)-3H-imidazo[4,5-b]pyridin-3-yl)-2,3-dihydro-1H-inden-1-yl)amino)propyl)-N-methylacrylamide], the IC50 turned out to be 74 nM in test [1]; 21.9 nM in test [2]; 116 nM in test [3] (Homo sapiens, LAPC4, 72 h); 257 nM in test [4].
The corresponding values for `C=CC(=O)N1CCC[C@H]1C(=O)N[C@H]1CCc2cc(-n3c(-c4cccnc4N)nc4ccc(-n5cccn5)nc43)ccc21` [Example 26, (S)-1-acryloyl-N—((S)-5-(2-(2-aminopyridin-3-yl)-5-(1H-pyrazol-1-yl)-3H-imidazo[4,5-b]pyridin-3-yl)-2,3-dihydro-1H-inden-1-yl)pyrrolidine-2-carboxamide] are more than 1000 nM, more than 1000 nM, 2050 nM and more than 10000 nM.
With `C=CC(=O)N1CCC(N[C@H]2CCc3cc(-n4c(-c5cccnc5N)nc5ccc(-n6cccn6)nc54)ccc32)C(O)C1` (single isomer, unassigned) [Example 142, 1-[(3*,4*)-4-{[(1S)-5-[2-(2-aminopyridin-3-yl)-5-(pyrazol-1-yl)imidazo[4,5-b]pyridin-3-yl]-2,3-dihydro-1H-inden-1-yl]amino}-3-hydroxypiperidin-1-yl]prop-2-en-1-one], the IC50 is more than 1000 nM in test [1], more than 1000 nM in test [2], 3460 nM in test [3] (72 h) and more than 10000 nM in test [4].
As to `CC(C)=CC(=O)N1CCC(N[C@H]2CCc3cc(-n4c(-c5cccnc5N)nc5ccc(-n6cccn6)nc54)ccc32)CC1` [Example 185, 1-(4-{[(1S)-5-[2-(2-aminopyridin-3-yl)-5-(pyrazol-1-yl)imidazo[4,5-b]pyridin-3-yl]-2,3-dihydro-1H-inden-1-yl]amino}piperidin-1-yl)-3-methylbut-2-en-1-one], the IC50 in test [1] came out at 53.2 nM; in test [2] it was 2170 nM; in test [3] (Homo sapiens, LAPC4, 72 h), 4130 nM; in test [4] it was 912 nM.
For the compound `C=CC(=O)N1CCC(N[C@@H]2c3ccc(-n4c(-c5cccnc5N)nc5ccc(-n6ccc(F)n6)nc54)cc3CC2F)C[C@H]1C` (single isomer, unassigned) [Example 274, 1-((2R,4*)-4-(((1R,2*)-5-(2-(2-aminopyridin-3-yl)-5-(3-fluoro-1H-pyrazol-1-yl)-3H-imidazo[4,5-b]pyridin-3-yl)-2-fluoro-2,3-dihydro-1H-inden-1-yl)amino)-2-methylpiperidin-1-yl)prop-2-en-1-one], the IC50 worked out at 18.8 nM in test [1], 696 nM in test [2], 323 nM in test [3] (72 h) and 94.4 nM in test [4].
The corresponding values for `C=CC(=O)N1CCC(N[C@@H]2c3ccc(-n4c(-c5cccnc5N)nc5ccc(-n6cccn6)nc54)cc3CC2F)CC1C(F)F` (single isomer, unassigned) [Example 302, 1-((2*,4*)-4-(((1R,2*)-5-(2-(2-aminopyridin-3-yl)-5-(1H-pyrazol-1-yl)-3H-imidazo[4,5-b]pyridin-3-yl)-2-fluoro-2,3-dihydro-1H-inden-1-yl)amino)-2-(difluoromethyl)piperidin-1-yl)prop-2-en-1-one] are 16.9 nM, 82.1 nM, 129 nM and 33.3 nM.
The corresponding values for `C=CC(=O)NC1CCC(N[C@H]2CCc3cc(-n4c(-c5cccnc5N)nc5ccc(-n6cccn6)nc54)ccc32)CC1` (single isomer, unassigned) [Example 47, N-((1*,4*)-4-(((S)-5-(2-(2-aminopyridin-3-yl)-5-(1H-pyrazol-1-yl)-3H-imidazo[4,5-b]pyridin-3-yl)-2,3-dihydro-1H-inden-1-yl)amino)cyclohexyl)acrylamide] are 548 nM, 200 nM, 4270 nM and 2570 nM.
With `C=CC(=O)N1CCC(N[C@H]2CC(F)c3cc(-n4c(-c5cccnc5N)nc5ccc(-n6cccn6)nc54)ccc32)CC1` (single isomer, unassigned) [Example 234, 1-(4-(((1S,3*)-5-(2-(2-aminopyridin-3-yl)-5-(1H-pyrazol-1-yl)-3H-imidazo[4,5-b]pyridin-3-yl)-3-fluoro-2,3-dihydro-1H-inden-1-yl)amino)piperidin-1-yl)prop-2-en-1-one], the IC50 in test [1] amounted to 12.1 nM; in test [2], 317 nM; in test [3] (72 h), 330 nM; in test [4], 70.4 nM.
